#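 Each compound was tested at five concentrations against cells in 96-well plates for 48 hours. Here, GI50 denotes the concentration required for 50% inhibition of growth. At the TGI there is no net growth.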
# Legend:
# Assay in all cases: DTP human tumour cell line panel, 48 h
# [1] = system: KM12 colon
# [2] = system: SR leukemia
# [3] = system: HT29 colon
# [4] = system: K-562 leukemia
# [5] = system: SN12C renal
# [6] = system: 786-0 renal
# [7] = system: UACC-257 melanoma
# [8] = system: HOP-92 NSCLC
# [9] = system: PC-3 prostate
# [10] = system: SF-295 CNS
# [11] = system: SNB-75 CNS
# [12] = system: HOP-62 NSCLC
# [13] = system: RPMI-8226 leukemia
# [14] = system: BT-549 breast
# [15] = system: HCT-116 colon
# [16] = system: SK-MEL-2 melanoma
# [17] = system: UACC-62 melanoma
# [18] = system: ACHN renal
# [19] = system: NCI-H460 lung
# [20] = system: SF-539 CNS
# [21] = system: SF-268 CNS
# [22] = system: OVCAR-3 ovarian
# [23] = system: M14 melanoma
# [24] = system: SNB-19 CNS
# [25] = system: MOLT-4 leukemia
# [26] = system: COLO 205 colon
# [27] = system: SK-OV-3 ovarian
# [28] = system: NCI/ADR-RES ovarian
# [29] = system: CAKI-1 renal
# [30] = system: EKVX NSCLC
# [31] = system: T-47D breast
# [32] = system: MCF7 breast
# [33] = system: NCI-H226 lung
# [34] = system: OVCAR-8 ovarian
# [35] = system: TK-10 renal
# [36] = system: SK-MEL-5 melanoma
# [37] = system: HL-60(TB) leukemia
# [38] = system: HS 578T breast
# [39] = system: MDA-MB-231 breast
# [40] = system: A549 NSCLC
# [41] = system: HCT-15 colon
# [42] = system: DU-145 prostate
# [43] = system: OVCAR-5 ovarian
# [44] = system: RXF 393 renal
# [45] = system: OVCAR-4 ovarian
# [46] = system: U251 CNS
# [47] = system: SK-MEL-28 melanoma
# [48] = system: CCRF-CEM leukemia
# [49] = system: NCI-H23 lung
# [50] = system: NCI-H522 lung
# [51] = system: MDA-MB-435
# [52] = system: A498 renal
structure (smiles),measurement,setting,value
COc1ccc(CCNC(=O)c2ccc(NC3=C(Cl)C(=O)N(Cc4ccccc4)C3=O)cc2)cc1OC,GI50,[1],23.5 µM
same,TGI,[1],> 100 µM
same,GI50,[2],1.44 µM
same,TGI,[2],3.15 µM
same,GI50,[3],7.88 µM
same,TGI,[3],> 100 µM
same,GI50,[4],2.21 µM
same,TGI,[4],5.21 µM
same,GI50,[5],23.9 µM
same,TGI,[5],> 100 µM
same,GI50,[6],3.88 µM
same,TGI,[6],> 100 µM
same,GI50,[7],20.3 µM
same,TGI,[7],48.6 µM
same,GI50,[8],2.22 µM
same,TGI,[8],5.75 µM
same,GI50,[9],6.02 µM
same,TGI,[9],27.8 µM
same,GI50,[10],29.4 µM
same,TGI,[10],> 100 µM
same,GI50,[11],38.4 µM
same,TGI,[11],> 100 µM
same,GI50,[12],45 µM
same,TGI,[12],> 100 µM
same,GI50,[13],2.27 µM
same,TGI,[13],6.5 µM
same,GI50,[14],7.68 µM
same,TGI,[14],> 100 µM
same,GI50,[15],6.04 µM
same,TGI,[15],> 100 µM
same,GI50,[16],16.8 µM
same,TGI,[16],54.1 µM
same,GI50,[17],11.8 µM
same,TGI,[17],74.8 µM
same,GI50,[18],43 µM
same,TGI,[18],> 100 µM
same,GI50,[19],32 µM
same,TGI,[19],> 100 µM
same,GI50,[20],23.9 µM
same,TGI,[20],70.5 µM
same,GI50,[21],26.2 µM
same,TGI,[21],> 100 µM
same,GI50,[22],10.9 µM
same,TGI,[22],> 100 µM
same,GI50,[23],5.47 µM
same,TGI,[23],> 100 µM
same,GI50,[24],27.5 µM
same,TGI,[24],> 100 µM
same,GI50,[25],2.28 µM
same,TGI,[25],4.78 µM
same,GI50,[26],3.94 µM
same,TGI,[26],> 100 µM
same,GI50,[27],35.8 µM
same,TGI,[27],> 100 µM
same,GI50,[28],22.3 µM
same,TGI,[28],64.4 µM
same,GI50,[29],3.04 µM
same,TGI,[29],9.11 µM
same,GI50,[30],24.9 µM
same,TGI,[30],> 100 µM
same,GI50,[31],5.31 µM
same,TGI,[31],> 100 µM
same,GI50,[32],6.32 µM
same,TGI,[32],> 100 µM
same,GI50,[33],10 µM
same,TGI,[33],> 100 µM
same,GI50,[34],11.9 µM
same,TGI,[34],> 100 µM
same,GI50,[35],11.5 µM
same,TGI,[35],70.9 µM
same,GI50,[36],6.27 µM
same,TGI,[36],42.3 µM
same,GI50,[37],2.83 µM
same,TGI,[37],4.49 µM
same,GI50,[38],4.62 µM
same,TGI,[38],> 100 µM
same,GI50,[39],4.52 µM
same,TGI,[39],> 100 µM
same,GI50,[40],33.1 µM
same,TGI,[40],> 100 µM
same,GI50,[41],4.1 µM
same,TGI,[41],> 100 µM
same,GI50,[42],16.2 µM
same,TGI,[42],> 100 µM
same,GI50,[43],16.9 µM
same,TGI,[43],43.7 µM
same,GI50,[44],7.83 µM
same,TGI,[44],> 100 µM
same,GI50,[45],> 100 µM
same,TGI,[45],> 100 µM
same,GI50,[46],32.8 µM
same,TGI,[46],> 100 µM
same,GI50,[47],15.1 µM
same,TGI,[47],> 100 µM
same,GI50,[48],0.48 µM
same,TGI,[48],3.71 µM
same,GI50,[49],2.01 µM
same,TGI,[49],4.46 µM
same,GI50,[50],4.74 µM
same,TGI,[50],89.9 µM
same,GI50,[51],15.8 µM
same,TGI,[51],43.8 µM
same,GI50,[52],27.2 µM
same,TGI,[52],72.1 µM

# Reference: PubChem BioAssay (NCI)
